{
  "source": "patent US8445441B2",
  "about": "“Inhibitors of BCL-2” (Case Western Reserve University, priority 2007, dated 2013)",
  "key": {"IP3R type 1 channel": {"system": "IP3R type 1 channel", "assay": "single IP3R channel activity in planar lipid bilayers", "type": "biochemical", "settings": "2 μM IP3, 250 nM Ca2+", "method": "FIG. 5 illustrates a summary of multiple experiments (mean±SEM) measuring effects of Bcl-2 and peptides on IP3R channel open probability. n=number of individual channels examined. Symbols represent mean±SEM. *p<0.05.\nThe effects of peptide 2 and purified Bcl-2 on IP3R channel activity were analyzed in planar lipid bilayers under steady-state conditions. Single IP3R type 1 channel activity was visualized as a series of discrete positive current fluctuations in the presence of 2 μM IP3 and 250 nM Ca^2+ in the cis compartment (cytoplasmic side of channel). A significant reduction in single channel activity was observed after adding 0.1 μM purified Bcl-2 to the cytoplasmic face of the IP3R channel, and addition of 10 μM peptide 2 reversed Bcl-2's inhibitory effect on channel activity. Average open probabilities under various conditions were calculated from multiple repeated experiments (FIG. 5). Addition of Bcl-2 reduced IP3R open probability by 11.5-fold to 0.018."}, "Jurkat cells [1]": {"system": "Jurkat cells", "assay": "anti-CD3-induced apoptosis (apoptotic nuclei)", "type": "cell-based", "method": "FIG. 7 illustrates peptide 2 Enhances Anti-CD3-Induced Apoptosis in Bcl-2-Positive Cells (A) Typical apoptotic nuclear morphology (arrow, Hoechst 33342 stain) 24 hr after 5 μg/ml anti-CD3 treatment of Jurkat cells. Scale bars, 10 μm. (B) Bcl-2(−) and Bcl-2(+) WEHI7.2 cells were pre-incubated±60 μM peptides plus Chariot reagent and then incubated with 20 μg/ml anti-CD3 for 24 hr. Symbols represent the percentage of cells (mean±SEM) with apoptotic nuclei in three experiments for Bcl-2(−) and five experiments for Bcl-2(+) cells (200 cells counted per coverslip). (C) Jurkat cells were pre-incubated±60 μM peptides±Chariot reagent and then incubated with 5 μg/ml anti-CD3 for 24 hr. Symbols represent the percentage of cells (mean±SEM) with apoptotic nuclei in five experiments (240 cells counted per coverslip).\nPeptide 2 also attenuated Bcl-2's inhibition of anti-CD3-induced apoptosis in Jurkat cells. In preliminary studies (data not shown), we tested several anti-CD3 concentrations. Higher concentrations of anti-CD3 induced high levels of apoptosis that might obscure the effect of the peptide. We therefore used 5 μg/ml anti-CD3, sufficient to induce 20%-30% apoptosis."}, "Jurkat cells [2]": {"system": "Jurkat cells", "assay": "anti-CD3-induced Ca2+ elevation by digital imaging", "type": "cell-based", "method": "(§1) FIGS. 6A-D illustrates peptide 2 (SEQ ID NO:3) Reverses Bcl-2's Inhibition of Anti-CD3-Induced Ca^2+Elevation. (A) Representative Ca^2+ traces (each the mean of ˜65 cells) recording anti-CD3 (arrow, time of addition)-induced Ca^2+ elevation in Bcl-2(+) WEHI7.2 cells. Peptide (60 μM) uptake was facilitated by Chariot reagent. (B) Peak anti-CD3 induced Ca^2+ elevation in Bcl-2(−) and Bcl-2(+) WEHI7.2 cells treated with peptides as in (A) [mean±SEM, five experiments for Bcl-2(−) and seven experiments for Bcl-2(+) cells, with mean 68 cells per sample per experiment]. (C) Representative Ca^2+ traces in Jurkat cells (mean 85 cells each). Treatment conditions are the same as in (A), except that a control involving addition of peptide 2 without Chariot reagent has been added. (D) Peak anti-CD3-induced Ca^2+ elevation in Jurkat cells treated with peptides as in (C) (mean±SEM, seven experiments, mean 81 cells per sample per experiment).\n(§2) Next we investigated whether peptide 2 also reverses Bcl-2's inhibitory effect on Ca^2+ release through the IP3R in Bcl-2(+) and (−) WEHI7.2 clones, newly derived WEHI7.2 mixed populations exogenously expressing Bcl-2, and Jurkat cells. Optimal conditions for peptide delivery and anti-CD3 concentration were determined in preliminary experiments. Peptide delivery in the lipid bilayer is 100%, whereas the penetration of peptide 2 into cells is much less, accounting for the lesser effect in cells. Therefore, a higher concentration of peptide (60 μM) was delivered into cells using the Chariot delivery reagent. Cytoplasmic Ca^2+ concentration was continuously measured at a single-cell level by digital imaging during anti-CD3 treatment. Representative Ca^2+ traces from Bcl-2(+) WEHI7.2 cells are shown in FIG. 6A, and the average Ca^2+ elevation induced by anti-CD3 in seven experiments is summarized in FIG. 6B. Observed variations in lag phase are at least partially attributable to the fact that lymphocytes are only loosely adherent to coverslips and thus rapid buffer exchange is not possible during antibody additions. Peptide 2 enhanced anti-CD3-induced Ca^2+ elevation in Bcl-2(+) WEHI7.2 cells by 40%. […] Peptide 2 had no effect on Ca^2+ elevation when added to the cells in the absence of the Chariot reagent. […] The low Bcl-2 level in Jurkat cells and the barely detectable endogenous Bcl-2 in Bcl-2(−) WEHI7.2 cells are consistent with the higher amplitude and longer duration of the Ca^2+ response in these cells in contrast to Bcl-2(+) WEHI7.2 cells (compare FIGS. 6A and 6B to FIGS. 6C and 6D). Thus, peptide 2 modulated anti-CD3-induced Ca^2+ elevation in both Bcl-2(+) WEHI7.2 cells and Jurkat cells, consistent with the ability of peptide 2 to disrupt Bcl-2-IP3R interaction."}, "WEHI7.2 cells": {"system": "WEHI7.2 cells", "assay": "anti-CD3-induced Ca2+ elevation by digital imaging", "type": "cell-based", "settings": "60 μM peptide with Chariot reagent", "method": "as §1, §2"}, "[3]": {"system": "murine embryonic fibroblasts (MEFs)", "assay": "unidirectional 45Ca2+ flux, IP3-induced efflux", "type": "cell-based", "settings": "in the presence of thapsigargin", "text": "The conclusion that peptide 2 acts directly on the Bcl-2-IP3R interaction is supported not only by experiments described above (FIG. 5) in which peptide 2 reversed Bcl-2-mediated inhibition of IP3R channel opening in vitro, but also by unidirectional ^45Ca^2+ flux experiments that allow for very accurate quantification of Ca^2+ release through IP3Rs located on the ER. These experiments require firmly adherent cells, and therefore murine embryonic fibroblasts (MEFs), which have a somewhat lower level of endogenous Bcl-2 than Jurkat cells, were employed. The rate of IP3-induced ^45Ca^2+ efflux was measured in the presence of thapsigargin, which completely prevents ER Ca^2+ reuptake."}},
  "data": [
    {"sequence": "NVYTEIKCNSLLPLDDIVRV (listed as Homo sapiens) [peptide 2, 20 amino acid peptide, aa 1389-1408 of IP3R subdomain 3a1]", "values": [
      {"measurement": "IP3R open probability", "setting": "IP3R type 1 channel; 10 μM peptide after 0.1 μM purified Bcl-2, Bcl-2 alone 0.018", "value": 0.16},
      {"measurement": "reversal of Bcl-2's inhibitory effect on channel activity", "setting": "IP3R type 1 channel; after 0.1 μM purified Bcl-2", "value": "reversed"},
      {"measurement": "anti-CD3-induced apoptosis (percentage of apoptotic cells)", "setting": "Jurkat cells [1]; 60 μM peptide with Chariot, 5 μg/ml anti-CD3, 24 hr, anti-CD3 alone 20%-30%", "value": "40%-45%"},
      {"measurement": "effect on anti-CD3-induced apoptosis", "setting": "Jurkat cells [1]; peptide in the absence of Chariot reagent", "value": "did not have an effect"},
      {"measurement": "enhancement of anti-CD3-induced Ca2+ elevation", "setting": "Jurkat cells [2]; Jurkat cells with endogenous Bcl-2 knocked down by siRNA", "value": "did not enhance"},
      {"measurement": "enhancement of anti-CD3-induced Ca2+ elevation", "setting": "Jurkat cells [2]; Jurkat cells, 60 μM peptide with Chariot reagent", "value": "significantly enhanced"},
      {"measurement": "effect on intracellular Ca2+ levels", "setting": "Jurkat cells [2]; absence of anti-CD3 stimulation (data not shown)", "value": "did not affect"},
      {"measurement": "effect on Ca2+ elevation", "setting": "Jurkat cells [2]; peptide added in the absence of Chariot reagent", "value": "no effect"},
      {"measurement": "enhancement of anti-CD3-induced Ca2+ elevation", "setting": "WEHI7.2 cells; Bcl-2(+) WEHI7.2 cells", "value": 40, "unit": "%"},
      {"measurement": "effect on anti-CD3-induced Ca2+ elevation", "setting": "WEHI7.2 cells; Bcl-2(−) WEHI7.2 cells", "value": "did not have a significant effect"},
      {"measurement": "rate of IP3-induced 45Ca2+ efflux", "setting": "[3]", "value": "significantly increased"}
    ]}
  ]
}
